The source made the active and inactive calls.
Tests used:
H9c2 = assay: cells; assay type: functional, cell-based; details: Rattus norvegicus, H9c2, Myocardium;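 note: confirmatory concentration-response retest of ultra-high-throughput screening hits for modulation of myocardial damage; cell death induced by hydrogen peroxide oxidative stress; compound pretreatment for 60 min then peroxide exposure for 2 h; potency is for protecting the cells against peroxide damage rather than for killing them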
Cytochrome P450 3A4 = Cytochrome P450 3A4 (Homo sapiens, UniProt P08684);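 note: CYP3A4 tested as one member of a cytochrome P450 panel screen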
Chain of Cytochrome P450 3A4 (P08684 whole entry): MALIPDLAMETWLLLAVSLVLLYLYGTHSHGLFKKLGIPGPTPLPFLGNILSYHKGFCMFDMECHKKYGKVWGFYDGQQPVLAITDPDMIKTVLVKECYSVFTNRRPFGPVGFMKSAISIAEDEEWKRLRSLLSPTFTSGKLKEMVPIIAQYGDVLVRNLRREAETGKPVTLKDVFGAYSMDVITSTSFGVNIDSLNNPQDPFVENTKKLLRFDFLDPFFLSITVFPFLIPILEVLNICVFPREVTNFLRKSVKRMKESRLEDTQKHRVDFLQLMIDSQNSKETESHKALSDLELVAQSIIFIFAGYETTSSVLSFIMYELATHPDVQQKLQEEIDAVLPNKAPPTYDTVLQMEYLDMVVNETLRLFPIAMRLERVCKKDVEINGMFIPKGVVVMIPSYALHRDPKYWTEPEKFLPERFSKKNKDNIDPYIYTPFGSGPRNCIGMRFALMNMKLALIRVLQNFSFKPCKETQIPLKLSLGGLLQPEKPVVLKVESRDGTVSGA

Protein Wnt-3a = Protein Wnt-3a (Mus musculus, UniProt P27467); assay: antagonism of Wnt3a pathway luciferase reporter – Wnt-LIGHT cells, luminescence, selectivity assay for Gli-SUFU antagonist project, dose response (AID 651570); assay type: functional; details: read-out: IC50_Mean;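 note: Wnt-LIGHT reporter cells stimulated with conditioned medium from Wnt3a-producing cells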
Chain of Protein Wnt-3a (P27467 whole entry): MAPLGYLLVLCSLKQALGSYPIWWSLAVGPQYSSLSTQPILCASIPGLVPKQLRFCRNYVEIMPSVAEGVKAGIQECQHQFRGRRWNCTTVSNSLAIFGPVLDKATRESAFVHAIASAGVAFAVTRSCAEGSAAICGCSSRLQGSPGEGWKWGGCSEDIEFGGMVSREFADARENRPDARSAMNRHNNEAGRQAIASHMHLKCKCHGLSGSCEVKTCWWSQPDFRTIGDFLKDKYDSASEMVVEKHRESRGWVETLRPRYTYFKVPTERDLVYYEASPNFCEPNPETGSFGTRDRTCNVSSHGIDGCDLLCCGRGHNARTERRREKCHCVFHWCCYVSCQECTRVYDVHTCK

[1] = viability of uninfected HEp-2 cells – cell-based, HTS, cytotoxicity control for RSV inhibitor project, dose response (AID 2410); assay type: functional; details: human respiratory syncytial virus
[2] = alpha-synuclein stem-loop luciferase translation blockers – H4 neuroglioma cells, luminescence, confirmation (AID 1988); assay type: functional, cell-based
[3] = Luminescence Cell-Based Dose Response HTS to Identify Inhibitors of 5'UTR Stem-Loop Driven Prion Protein mRNA Translation in H4 Neuroglioblastoma Cells. [Related pubchem assays: 1827 (Project Summary), 1813 (Primary HTS)]; assay type: functional
[4] = luciferase reporter signal suppression in cells – H4 neuroglioma cells, luminescence, dose response (AID 1990); assay type: functional, cell-based
[5] = target: T1, Low molecular weight phosphotyrosine protein phosphatase (Homo sapiens, UniProt P24666); assay type: functional; details: read-out: IC50_Mean;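 note: Dose-response confirmation assay measuring inhibition of LMPTP enzyme activity by fluorescence intensity read-out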
T1 sequence (P24666 whole entry): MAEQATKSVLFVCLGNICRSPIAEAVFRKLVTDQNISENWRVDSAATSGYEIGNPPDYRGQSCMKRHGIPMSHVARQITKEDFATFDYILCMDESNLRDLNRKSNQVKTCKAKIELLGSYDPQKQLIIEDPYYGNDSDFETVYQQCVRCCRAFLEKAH

Prothrombin = Prothrombin (Bos taurus, UniProt P00735); assay: thrombin protease inhibitors – biochemical, fluorescence polarization, uHTS hits, dose response (AID 602369); assay type: functional
[6] = target: T2, Replicative DNA helicase DnaB (Mycobacterium tuberculosis, UniProt P9WMR3); assay: DnaB intein splicing inhibitors, dose response, biochemical, cell-free fluorescence (AID 449749); assay type: functional
T2 sequence (P9WMR3 whole entry): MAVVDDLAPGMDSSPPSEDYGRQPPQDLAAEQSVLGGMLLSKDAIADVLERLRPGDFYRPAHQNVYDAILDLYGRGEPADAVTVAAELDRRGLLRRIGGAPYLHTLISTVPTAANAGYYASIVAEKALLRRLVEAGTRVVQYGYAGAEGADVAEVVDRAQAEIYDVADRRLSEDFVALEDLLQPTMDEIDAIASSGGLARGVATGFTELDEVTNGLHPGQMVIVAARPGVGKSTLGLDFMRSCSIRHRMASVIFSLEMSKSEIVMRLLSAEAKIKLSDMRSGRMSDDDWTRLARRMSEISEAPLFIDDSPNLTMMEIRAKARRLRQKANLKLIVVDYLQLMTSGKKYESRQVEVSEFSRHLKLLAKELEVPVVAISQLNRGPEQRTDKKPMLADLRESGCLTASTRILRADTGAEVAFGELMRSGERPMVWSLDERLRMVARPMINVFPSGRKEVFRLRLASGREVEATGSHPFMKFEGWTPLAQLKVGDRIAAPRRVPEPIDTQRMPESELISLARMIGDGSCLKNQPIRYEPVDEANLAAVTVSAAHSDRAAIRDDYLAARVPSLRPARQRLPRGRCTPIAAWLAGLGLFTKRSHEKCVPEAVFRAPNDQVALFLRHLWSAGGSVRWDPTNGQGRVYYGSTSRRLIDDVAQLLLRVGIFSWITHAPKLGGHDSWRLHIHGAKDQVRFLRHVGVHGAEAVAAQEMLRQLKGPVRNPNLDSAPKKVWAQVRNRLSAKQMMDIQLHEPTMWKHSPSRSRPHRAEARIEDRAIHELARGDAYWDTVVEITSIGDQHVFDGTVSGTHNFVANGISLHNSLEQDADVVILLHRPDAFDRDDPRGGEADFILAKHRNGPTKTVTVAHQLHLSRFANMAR

[7] = target: 26S proteasome non-ATPase regulatory subunit 14 (Homo sapiens, UniProt O00487); assay: inhibition of proteasome subunit RPN11 – biochemical, fluorescence polarization, uHTS hits, confirmation (AID 602368); assay type: functional
Chain of 26S proteasome non-ATPase regulatory subunit 14 (O00487 whole entry): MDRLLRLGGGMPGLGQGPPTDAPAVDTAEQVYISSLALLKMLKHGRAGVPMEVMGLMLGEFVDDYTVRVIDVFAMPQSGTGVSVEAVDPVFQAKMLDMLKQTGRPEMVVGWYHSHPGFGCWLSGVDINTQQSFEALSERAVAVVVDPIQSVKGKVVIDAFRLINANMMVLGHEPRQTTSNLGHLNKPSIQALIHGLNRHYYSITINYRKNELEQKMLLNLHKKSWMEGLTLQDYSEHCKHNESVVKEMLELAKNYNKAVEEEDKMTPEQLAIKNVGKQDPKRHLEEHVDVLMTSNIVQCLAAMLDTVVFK

[8] = tested on: Streptococcus sp. 'group A'; assay: Streptococcus pyogenes SK(-)GAS viability under kanamycin – luminescence, BacTiterGlo, confirmation, counter-screen for streptokinase expression inhibitor project, dose response (AID 1900); assay type: functional, organism-based
[9] = target: Heat shock protein HSP 90-alpha (Homo sapiens, UniProt P07900); assay type: functional, organism-based
Streptococcus = assay: GAS UMAA2166 growth inhibition – luminescence, BacTiterGlo, counter-screen for streptokinase expression inhibitor project, dose response (AID 1915); assay type: functional, organism-based;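 note: potency for reduction of bacterial viability or growth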
[10] = target: 72 kDa type IV collagenase (Homo sapiens, UniProt P08253); assay: Dose Response validation of uHTS RPN11 inhibitor hits using a MMP-2 Fluorescence assay.; assay type: functional
Chain of 72 kDa type IV collagenase (P08253 whole entry): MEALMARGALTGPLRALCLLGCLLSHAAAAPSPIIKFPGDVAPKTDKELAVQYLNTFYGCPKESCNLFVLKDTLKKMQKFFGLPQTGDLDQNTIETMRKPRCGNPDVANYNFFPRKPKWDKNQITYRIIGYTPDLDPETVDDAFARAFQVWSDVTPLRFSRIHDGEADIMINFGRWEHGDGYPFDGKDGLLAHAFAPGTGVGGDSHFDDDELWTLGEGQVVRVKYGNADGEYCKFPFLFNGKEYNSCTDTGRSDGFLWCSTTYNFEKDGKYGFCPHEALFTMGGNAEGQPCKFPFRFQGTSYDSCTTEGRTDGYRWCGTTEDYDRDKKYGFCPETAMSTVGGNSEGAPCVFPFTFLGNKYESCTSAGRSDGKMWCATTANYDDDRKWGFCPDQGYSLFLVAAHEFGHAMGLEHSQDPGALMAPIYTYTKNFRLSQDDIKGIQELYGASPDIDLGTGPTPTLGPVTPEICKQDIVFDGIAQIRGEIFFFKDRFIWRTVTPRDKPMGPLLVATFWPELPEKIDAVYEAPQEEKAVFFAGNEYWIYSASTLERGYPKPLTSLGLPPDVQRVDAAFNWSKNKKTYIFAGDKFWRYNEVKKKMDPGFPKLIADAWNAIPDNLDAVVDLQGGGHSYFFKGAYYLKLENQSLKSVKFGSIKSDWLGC

Protein RecA = target: T3, Protein RecA (Mycobacterium tuberculosis, UniProt P9WHJ3); assay: Fluorescence Cell-Free Homogeneous Dose Retest to Identify Inhibitors of RecA-Intein Splicing Activity. [Related pubchem assays (depositor defined):AID2097, AID2223, AID489010, AID492950]; assay type: functional
T3 sequence (P9WHJ3 whole entry): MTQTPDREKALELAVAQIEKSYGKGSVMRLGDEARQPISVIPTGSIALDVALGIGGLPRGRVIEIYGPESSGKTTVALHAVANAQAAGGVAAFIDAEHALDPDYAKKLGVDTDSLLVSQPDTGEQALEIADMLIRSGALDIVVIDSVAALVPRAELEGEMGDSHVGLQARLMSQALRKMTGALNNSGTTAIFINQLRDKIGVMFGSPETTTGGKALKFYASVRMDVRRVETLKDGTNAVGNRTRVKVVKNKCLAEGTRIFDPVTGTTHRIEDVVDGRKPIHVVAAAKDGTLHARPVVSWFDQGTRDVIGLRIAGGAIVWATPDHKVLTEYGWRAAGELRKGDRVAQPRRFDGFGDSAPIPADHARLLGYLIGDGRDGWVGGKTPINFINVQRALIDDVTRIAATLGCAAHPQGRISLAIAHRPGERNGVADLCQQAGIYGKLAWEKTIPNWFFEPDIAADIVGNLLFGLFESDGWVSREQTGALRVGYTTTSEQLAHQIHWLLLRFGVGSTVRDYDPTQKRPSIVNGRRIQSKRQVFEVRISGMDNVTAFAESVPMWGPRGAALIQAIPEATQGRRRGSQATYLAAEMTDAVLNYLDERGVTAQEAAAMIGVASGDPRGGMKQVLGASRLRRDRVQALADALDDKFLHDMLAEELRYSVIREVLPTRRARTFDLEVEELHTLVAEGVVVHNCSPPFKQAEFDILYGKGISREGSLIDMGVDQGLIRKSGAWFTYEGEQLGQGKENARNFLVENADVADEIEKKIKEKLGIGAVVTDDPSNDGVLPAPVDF

[11] = target: T4, Heat shock factor protein 1 (Mus musculus, UniProt P38532); assay: enhancement of HSF1-driven luciferase signal – cell-based, NIH3T3, luminescence, dose retest, confirmation (AID 435004); assay type: functional;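 note: stress induced by proteasome inhibitor MG132 added 30 min after compound; luciferase reporter driven by HSF1 response element in NIH3T3 cells; actives raise luminescence as potentiators of the MG132 stress response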
T4 sequence (P38532 whole entry): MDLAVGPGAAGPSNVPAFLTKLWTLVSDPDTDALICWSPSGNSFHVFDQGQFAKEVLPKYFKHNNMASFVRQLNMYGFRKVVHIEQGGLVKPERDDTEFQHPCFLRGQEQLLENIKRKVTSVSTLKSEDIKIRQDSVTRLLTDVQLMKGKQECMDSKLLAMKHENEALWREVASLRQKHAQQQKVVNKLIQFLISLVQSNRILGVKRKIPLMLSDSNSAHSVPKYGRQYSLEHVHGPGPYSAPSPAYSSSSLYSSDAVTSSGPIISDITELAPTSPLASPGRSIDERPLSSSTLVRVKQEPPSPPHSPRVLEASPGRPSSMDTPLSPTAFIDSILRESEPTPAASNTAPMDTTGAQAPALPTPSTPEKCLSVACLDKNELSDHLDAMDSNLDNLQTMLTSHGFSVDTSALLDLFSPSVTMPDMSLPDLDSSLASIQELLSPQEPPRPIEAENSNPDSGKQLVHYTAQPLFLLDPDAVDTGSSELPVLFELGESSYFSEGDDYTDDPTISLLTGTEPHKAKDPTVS

[12] = target: T5, Mitochondrial peptide methionine sulfoxide reductase (Bos taurus, UniProt P54149); assay: Absorbance-based biochemical high throughput dose response assay for activators of Methionine sulfoxide reductase A (MsrA).; assay type: functional
T5 sequence (P54149 whole entry): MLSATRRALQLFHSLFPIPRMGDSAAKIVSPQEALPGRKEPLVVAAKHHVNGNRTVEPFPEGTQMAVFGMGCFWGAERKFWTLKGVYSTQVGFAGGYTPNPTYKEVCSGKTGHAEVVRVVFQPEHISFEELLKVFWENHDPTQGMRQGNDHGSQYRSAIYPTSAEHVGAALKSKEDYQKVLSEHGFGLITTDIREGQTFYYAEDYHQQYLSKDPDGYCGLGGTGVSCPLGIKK

[13] = HEK-293T cell viability reduction – luminescence, B-cell screen hits, cytotoxicity control for BCR NF-kB inhibitor project, dose response (AID 489021); assay type: functional, cell-based;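 note: HEK-293T cells carrying an NF-kB luciferase reporter; cells exposed to compound for about 14 hours before viability readout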
[14] = Luminescence Cell-Based Dose Confirmation HTS to Identify Inhibitors of Platelet Dense Granule Release. [Related pubchem assays: 1663 (Primary HTS), 1678 (Summary of Project)]; assay type: functional
[15] = loss of viability in HepG2 cells – cell-based, CellTiter-Glo, cherry-picked, cytotoxicity control for Shn3 inhibitor project, dose response (AID 624134); assay type: functional
[16] = reduction of Shn3 3'UTR-driven luciferase in osteoblasts – cell-based, Clone20 osteoblasts, firefly luciferase, cherry-picked, dose response (AID 624132); assay type: functional;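 note: firefly luciferase luminescence from reporter carrying the Shn3 3'UTR in osteoblasts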
[17] = non-specific 3'UTR reporter inhibition in Clone20-Shn3RL – cell-based, Renilla luciferase, cherry-picked, counter-screen for Shn3 inhibitor project, dose response (AID 624133); assay type: functional
[18] = target: Luciferin 4-monooxygenase (Photinus pyralis, UniProt P08659); assay: inhibition of purified Photinus pyralis luciferase – biochemical, luminescence, dose response (AID 1891)
Chain of Luciferin 4-monooxygenase (P08659 whole entry): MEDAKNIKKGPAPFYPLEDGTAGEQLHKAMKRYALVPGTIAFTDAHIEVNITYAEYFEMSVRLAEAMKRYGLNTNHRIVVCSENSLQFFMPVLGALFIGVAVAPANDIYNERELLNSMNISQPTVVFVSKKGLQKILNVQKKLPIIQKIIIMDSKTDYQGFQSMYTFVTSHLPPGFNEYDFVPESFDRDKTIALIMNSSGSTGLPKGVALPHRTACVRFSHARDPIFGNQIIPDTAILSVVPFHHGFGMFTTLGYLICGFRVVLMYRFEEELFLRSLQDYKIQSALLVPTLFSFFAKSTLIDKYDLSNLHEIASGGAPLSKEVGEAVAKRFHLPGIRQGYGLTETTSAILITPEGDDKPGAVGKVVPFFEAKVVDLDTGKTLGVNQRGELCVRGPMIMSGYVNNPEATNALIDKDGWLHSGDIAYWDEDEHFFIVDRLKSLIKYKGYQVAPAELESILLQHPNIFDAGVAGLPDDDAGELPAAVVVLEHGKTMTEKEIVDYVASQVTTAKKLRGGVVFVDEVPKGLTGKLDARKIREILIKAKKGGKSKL

INS1 = assay: INS-1E survival protection against cytokine death – cell-based, luminescence, retest, dose response (AID 449756); assay type: functional; details: Rattus norvegicus;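 note: cell death triggered by IL-1 beta plus TNF-alpha plus IFN-gamma mixture; protective hits raise ATP signal compared with cytokine alone wells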
[19] = target: T6, Corticotropin-releasing factor receptor 2/Corticotropin-releasing factor-binding protein (Homo sapiens, UniProt P24387+Q13324); assay: Dose Response confirmation of uHTS hits for small molecule antagonists of the CRF-binding protein and CRF-R2 receptor complex.; assay type: functional; details: read-out: IC50_Mean
T6 sequence (Q13324 whole entry): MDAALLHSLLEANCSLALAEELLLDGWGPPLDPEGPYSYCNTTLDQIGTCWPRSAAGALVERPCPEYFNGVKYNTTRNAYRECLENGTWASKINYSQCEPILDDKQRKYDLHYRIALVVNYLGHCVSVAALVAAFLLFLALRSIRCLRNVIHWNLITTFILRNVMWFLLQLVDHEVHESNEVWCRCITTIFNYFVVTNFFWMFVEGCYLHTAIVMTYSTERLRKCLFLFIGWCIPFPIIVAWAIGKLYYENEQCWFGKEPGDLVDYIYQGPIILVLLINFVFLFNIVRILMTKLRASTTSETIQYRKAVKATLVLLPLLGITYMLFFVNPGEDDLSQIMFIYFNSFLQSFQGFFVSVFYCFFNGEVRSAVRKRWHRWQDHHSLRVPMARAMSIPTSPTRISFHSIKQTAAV
T6 sequence (P24387 whole entry): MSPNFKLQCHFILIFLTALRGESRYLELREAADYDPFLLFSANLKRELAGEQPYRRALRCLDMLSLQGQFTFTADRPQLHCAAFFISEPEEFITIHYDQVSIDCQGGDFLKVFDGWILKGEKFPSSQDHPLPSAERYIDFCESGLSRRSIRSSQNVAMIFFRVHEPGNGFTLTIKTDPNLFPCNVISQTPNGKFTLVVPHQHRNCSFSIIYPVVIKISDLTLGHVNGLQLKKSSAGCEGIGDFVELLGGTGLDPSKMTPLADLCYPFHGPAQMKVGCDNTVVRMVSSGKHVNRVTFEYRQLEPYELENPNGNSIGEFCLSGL

[20] = blockers of CRF-binding protein–CRF-R2 complex – cell-based, uHTS hits, 384-well, dose response (AID 651639); assay type: functional, Homo sapiens; details: read-out: IC50_Mean
[21] = target: T6, Corticotropin-releasing factor receptor 2/Corticotropin-releasing factor-binding protein; assay: activators of CRF receptor 2 with binding protein – uHTS hits, confirmation (AID 602473); assay type: functional; details: read-out: EC50_Mean

CC12C=CC(=O)CC1CCC1C2CCC2(C)C(O)C(O)CC12 (stereo not drawn)
IC50 (H9c2): > 79 µM (inactive)

COc1ccc(-c2nn(-c3ccccc3)cc2/C=N/NC(=O)c2ccc(Br)o2)cc1
AC50 (Cytochrome P450 3A4): 15.8 µM (inconclusive)
IC50 (Protein Wnt-3a): 7.01 µM (active)
CC50 [1]: 18.8 µM (active)

COc1nnc(-c2ccc(N3CCCCC3)c(N)c2)c2ccccc12
IC50 (Protein Wnt-3a): 25.8 µM (inactive)

Cc1ccc2c(c1)nc1c3ccccc3nc(-c3ccccc3N)n21
IC50 (H9c2): > 79 µM (inactive)

COc1ccc(-n2nc3c(N4CCC(C(=O)NCc5ccco5)CC4)nnc(C)c3c2C)cc1
EC50 [2]: > 120 µM (not active)
EC50 [3]: 20.3 µM (active)
EC50 [4]: > 120 µM (not active)
IC50 [5]: 61.1 µM (inactive)

CN1CCN(C(c2ccc(Cl)cc2)c2cc(Cl)c3cccnc3c2O)CC1 (stereo not drawn)
IC50 (Prothrombin): 75.6 µM (active)
AC50 [6]: > 380 µM (inactive)
IC50 [7]: 56.4 µM (active)
EC50 [8]: 1.92 µM (active)
AC50 [9]: 0.77 µM (active)
EC50 (Streptococcus): 3.8 µM (active)
IC50 [10]: 14.8 µM (active)
EC50 (Protein RecA): 2.42 µM (active)
EC50 [11]: > 260 µM (inconclusive)

N#Cc1ccccc1NC(=O)CN1C(=O)NC(Cc2c[nH]c3ccccc23)C1=O (stereo not drawn)
EC50 [12]: > 104 µM (inactive)

COc1cc(NC(=O)c2cc3c(C)nc4ccccc4c3o2)cc(OC)c1OC
IC50 (H9c2): > 79 µM (inactive)
IC50 [13]: 62.8 µM (inactive)

COc1ccc(/C=N/NC(=O)c2ccc(COc3cccc4cccnc34)cc2)cc1OC
IC50 (H9c2): > 79 µM (inactive)

Cc1cccnc1CN1CCN(C(=O)c2cc(COc3ccc4ncccc4c3)on2)CC1
EC50 [14]: > 112 µM (not active)
IC50 (Protein Wnt-3a): 1.62 µM (active)
AC50 [15]: 7.57 µM (active)
AC50 [16]: 2.1 µM (active)
AC50 [17]: 2.78 µM (active)
EC50 [18]: > 112 µM (not active)
AC50 (INS1): 3.77 µM (active)

COc1ccc(-c2csc(NC(=O)CSc3nc(SC)ns3)n2)cc1
IC50 [19]: 1.75 µM (active)
IC50 [20]: 4.64 µM (active)
EC50 [21]: > 53 µM (inactive)
